How the values were obtained:
[1] = molecular target: human NGF (Homo sapiens, UniProt P01138); assay: Binding affinity of Fab fragments to NGF (BIAcore surface plasmon resonance); settings: measured using Fab fragments
Procedure: The binding affinity of an anti-NGF antibody to NGF (such as hNGF) can be about 0.10 to about 1.0 nM, about 0.10 nM to about 0.80 nM, about 0.15 to about 0.75 nM and about 0.18 to about 0.72 nM. […] In some embodiment, the binding affinity is about 10 nM. In other embodiments, the binding affinity is less than about 10 nM. […] As is well known in the art, binding affinity can be expressed as KD, or dissociation constant, and an increased binding affinity corresponds to a decreased KD.
One way of determining binding affinity of antibodies to NGF is by measuring binding affinity of monofunctional Fab fragments of the antibody. To obtain monofunctional Fab fragments, an antibody (for example, IgG) can be cleaved with papain or expressed recombinantly. The affinity of an anti-NGF Fab fragment of an antibody can be determined by surface plasmon resonance (BIAcore3000™ surface plasmon resonance (SPR) system, BIAcore, INC, Piscaway N.J.). CM5 chips can be activated with N-ethyl-N′-(3-dimethylaminopropyl)-carbodiinide hydrochloride (EDC) and N-hydroxysuccinimide (NHS) according to the supplier's instructions. […] The concentrations of the Fab proteins are determined by ELISA and/or SDS-PAGE electrophoresis using a Fab of known concentration (as determined by amino acid analysis) as a standard. […] Equilibrium dissociation constant (KD) values are calculated as koff/kon. […]

[2] = test system: C3H/HeJ mice injected with NCTC 2472 osteolytic murine sarcoma cells into the femur; assay: Example 2: murine sarcoma bone cancer pain model, ongoing and palpation-evoked pain behaviors; type: in vivo, mouse; settings: days 10 and 14, vs sarcoma+vehicle

Chain of human NGF (P01138 122-241): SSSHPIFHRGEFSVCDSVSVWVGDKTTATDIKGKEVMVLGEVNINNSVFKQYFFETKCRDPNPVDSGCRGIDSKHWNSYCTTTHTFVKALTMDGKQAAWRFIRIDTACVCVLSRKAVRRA

| Compound | Kd [1] | ongoing and movement-evoked guarding behaviors ([2]; morphine sulfate 10 mg/kg i.p. 15 min prior to testing) | ongoing and movement-evoked guarding behaviors ([2]; morphine sulfate 30 mg/kg i.p. 15 min prior to testing) |
| --- | --- | --- | --- |
| antibody E3: humanized mouse anti-NGF monoclonal antibody; human IgG2a constant region A330P331 to S330S331, kappa light chain, variable regions SEQ ID NO:1 and 2 | ~0.07 nM |  |  |
| CN1CC[C@]23c4c5ccc(O)c4O[C@H]2[C@@H](O)C=C[C@H]3[C@H]1C5.O=S(=O)(O)O [morphine sulfate] |  | significantly reduced | significantly reduced |

Reference: US8007800B2, “Methods for treating bone cancer pain by administering a nerve growth factor antagonist antibody” (Pfizer Inc., priority 2004, dated 2011)
